PubChem BioAssay AID743502 (Broad Institute, 2014)
The source made the active and inactive calls.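 The calls were made as follows: active = IC50 under 35 µM against the melanocortin-4 receptor MC4R counterscreen signal; inactive = IC50 above 35 µM.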

What follows are molecules tested on HEK293 transfected MC4R, CRE-luciferase, beta-gal normalized (assay: MC4R antagonists in CRE-luciferase reporter cells, dose response, counter-screen for LGR2 antagonist project, cell-based, HEK293, beta-gal normalized, luminescence, dry powder (AID 743502)).
With `C[C@H](CO)N1C[C@H](C)[C@H](CN(C)C(=O)Nc2ccc(F)cc2)OCCCC[C@H](C)Oc2ccc(NC(=O)C3CCCCCC3)cc2C1=O` the IC50 was > 35 µM (inactive).
For `C[C@H](CO)N1C[C@H](C)[C@H](CN(C)C(=O)Nc2cccc3ccccc23)OCCCC[C@H](C)Oc2ccc(NC(=O)C3CCCCC3)cc2C1=O`, the IC50 was > 35 µM (inactive).
With `C[C@@H]1CN([C@@H](C)CO)C(=O)c2cc(NC(=O)C3CCCCC3)ccc2O[C@@H](C)CCCCO[C@H]1CN(C)C(=O)Nc1cccc2ccccc12` the IC50 was > 35 µM (inactive).
In the case of `Cc1ccc(NC(=O)N(C)C[C@@H]2OCCCC[C@H](C)Oc3ccc(NC(=O)C4CCCCC4)cc3C(=O)N([C@H](C)CO)C[C@@H]2C)cc1`, the IC50 is reported as > 35 µM (inactive).
In the case of `C[C@H](CO)N1C[C@H](C)[C@H](CN(C)C(=O)Nc2ccc3ccccc3c2)OCCCC[C@H](C)Oc2ccc(NC(=O)C3CCCCC3)cc2C1=O`, the IC50 is reported as > 35 µM (inactive).
In the case of `C[C@H](CO)N1C[C@H](C)[C@H](CN(C)C(=O)Nc2ccc(Cl)cc2)OCCCC[C@H](C)Oc2ccc(NC(=O)C3CCCCC3)cc2C1=O`, the IC50 is reported as > 35 µM (inactive).
With `C[C@H](CO)N1C[C@H](C)[C@H](CN(C)C(=O)Nc2ccc(F)cc2)OCCCC[C@H](C)Oc2ccc(NC(=O)C3CCCC3)cc2C1=O` the IC50 was > 35 µM (inactive).
`C[C@H]1CCCCO[C@@H](CN(C)C(=O)Nc2cccc3ccccc23)[C@@H](C)CN([C@@H](C)CO)C(=O)c2cc(NC(=O)C3CCCCC3)ccc2O1` was tested, and the IC50 was > 35 µM (inactive).
In the case of `C[C@H](CO)N1C[C@H](C)[C@H](CN(C)C(=O)Nc2ccccc2F)OCCCC[C@H](C)Oc2ccc(NC(=O)C3CCCCC3)cc2C1=O`, the IC50 is reported as > 35 µM (inactive).
In the case of `C[C@H](CO)N1C[C@H](C)[C@H](CN(C)C(=O)Nc2cccc(F)c2)OCCCC[C@H](C)Oc2ccc(NC(=O)C3CCCCC3)cc2C1=O`, the IC50 is reported as > 35 µM (inactive).
